From US5466716A, “Liposomal trimethylsphingosine” (The Biomembrane Institute, priority 1994, dated 1995)
Like-named read-outs stand apart in the source and are kept apart here.

Key:
neutrophils [1] = assay: phagokinetic activity of neutrophils on gold sol-coated plates; type: cell-based, human; conditions: for activity at 4.5 µM / activity at 12 µM: Homo sapiens, Neutrophil; for activity at 4.5 µM: 2 h, read-out: Area Swept; for activity at 12 µM: read-out: Area Swept (recovery of phagokinetic activity)
Experimental: The phagokinetic activity of neutrophils on gold sol-coated plates can be determined by a technique essentially as taught in Albrecht-Buehler (Cell, 11, 395, 1977). […] Thus, the inhibitory effect of TMS on phagokinetic activity is not dependent on cytotoxicity.
.sctn. The area swept by neutrophils was determined in photographs of the
monolayers. The regions cleared by neutrophil movement were then cut out
Phagokinetic activity was observed by tracing tracks of neutrophils moving on a glass substrate covered with gold colloid particles. The technique was described originally by Albrecht-Buehler, supra, using 3T3 and other cell lines. Briefly, 22×22 mm square glass coverslips (Corning Glass Works, Corning, N.Y.) were dipped for 1 min into 1% BSA prepared in Milli Q water. The BSA solution was prepared fresh each day and passed through 0.20 μm Nalgene filters (Nalgene Labware Division, Rochester, N.Y.).
The coverslip then was drained by touching a Kim-wipe paper towel to its edge, dipped into 100% ethanol and rapidly and completely dried in a 85° C. hot airstream. The coverslip was placed in a 3.5 cm Falcon plastic dish. Then 5.4 ml of AuCl4 H and 18 ml of 36.5 mM Na2 CO3 were added to 33 ml of distilled water and heated. Immediately after reaching the boiling point, 5.4 ml of 0.1% formaldehyde in water were added quickly and mixed. The suspension of gold particles forming a brownish color was distributed immediately onto the dish (2 ml each) and the coverslip was incubated for 2 hr at 37° C.
Particle-coated coverslips were washed in PBS, then twice in RPMI 1640 and finally put in another 3.5 cm Falcon plastic dish containing 2 ml of RPMI 1640 with glutamate and pyruvate. The coverslips were stored at 4° C. and used within 24 hr after preparation.
The freshly-purified neutrophils (1×10^4 cells/plate) were added onto the colloid-coated coverslip. TMS and other effectors were added into the medium on the plate. As a control, the solvent of the effectors (50% ethanol) was added at an equal amount. At that concentration (0.1%), ethanol brought no significant effect on neutrophil activities. To observe cell recovery from exposure to the effectors, neutrophils (2×10^5 cells/ml) were pre-incubated at 37° C. with 12 μM of TMS, SPN and DMS, then distributed to the dish dropwise, diluting the effectors 200-fold. Incubation was conducted under 5% CO2 at 37° C. for 2 hr and terminated by adding 200 μl of 10% formaldehyde. Microscopic examination of each plate was performed with a Nikon microscope, connected to a Polaroid camera for recordings. Phagokinetic activity was measured by tracing the track of a neutrophil. The track was recorded with photographs, then the area was measured by cutting and weighing there swept area.

neutrophils [2] = assay: neutrophil transmigration through HUVEC monolayer; type: cell-based, human
Experimental: A characteristic of neutrophils is the ability to adhere to activiated EC's and to migrate through the EC monolayer into the vascular or extravascular matrix. The effect of TMS on neutrophil interactions with EC's and their subsequent trans-endothelial migration thereof can be monitored in vitro using human umbilical endothelial cells (HUVEC's) (Luscinskas et al., J. Imm., 146, 1617, 1991). Neutrophils are added to a HUVEC monolayer and neutrophil-HUVEC interactions are assessed microscopically following fixation, embedding and staining of monolayer sections.
Cross-sections (2 μm) of the collagen bed with HUVEC's and neutrophils
were observed using a Zeiss light microscope with KPL W10 ahd Ph2 Neoflua
16 lenses. The number of cells transmigrated were counted for each view.
HUVEC's and culture media were purchased from Cell Systems (Kirkland, Wash.). The cells were maintained and cultured as described in Luscinskas et al., supra, with some modifications. Briefly, HUVEC's were maintained in 10 ml tissue culture flasks on a collagen type I bed obtained from rat tail (Upstate Biotechnology Inc, Lake Placid, N.Y.) with CS-complete medium, CS-growth factor and CS-AF-1 (Cell Systems). Cells became confluent within 2 to 4 days when incubated in 5% CO2 at 37° C.
For the transmigration assay, thick gels were formed in 24-well tissue culture plates. Preparation of the gel solution was carried out at 4° C. Eight parts of collagen solution (Vitrogen 100, from bovine tendon which contained less than 5 ng/ml endotoxin; Celtrix Labs, Palo Alto, Calif.), one part of 10×RPMI and one part of alkaline solution (2.2 g NaHCO3 in 100 ml of 0.05N NaOH and 200 mM HEPES) were mixed gently and distributed at 0.7 ml/well. The solution was left for 4 hr at 37° C. to eliminate air bubbles, then allowed to gel in a 37° C. oven for 3 hr. The wells were washed with 1.0 ml of CS-complete medium with attachment factors at least 4 times and every 3 to 6 hr during further incubation at 37° C. in 5% CO2.
HUVEC's at a passage level of less than 3 were detached from 10 ml tissue culture flasks with 3 ml of Trypsin-EDTA at 37° C. for 30 to 60 sec. Immediately, 3 ml of M199 with 20% heat-inactivated FCS was added. Cells were collected by centrifugation. The pellet was resuspended in 10 ml of CS-complete medium with attachment factors. Homogeneous cell suspensions were plated at 0.7 ml to each well and the plates were incubated for 3 hr at 37° C. The supernatant, which contains dead cells, was aspirated carefully and fresh complete medium with attachment factors was added.
The HUVEC monolayer in 24-well tissue culture plates were washed with M199 without FCS, then incubated with 1 ml/well of IL-1β (Boehringer Mannheim Biochemical Products, Indianapolis, Ind.) dissolved in M199 with 1% heat-inactivated FCS (HIFCS) at 10 U/ml. The plates were incubated at 37° C., 5% CO2 for 4 hr then washed gently with 1 ml of M199. The purified neutrophil suspension (1.5×10^6 cells/ml) in M199 containing 1% HIFCS was pre-incubated with TMS, or other effectors, for 10 min at 37° C. After aspirating the media in the well, 0.5 ml of the neutrophil suspension were added onto the HUVEC monolayer. The tissue culture plate was incubated for 90 min at 37° C.
The culture was terminated by gently aspirating the cell suspension, adding 1 ml of 10% formaldehyde in PBS and stored at 4° C. overnight for fixation. The edge of the collagen bed was cut with a small spatula along the wall 2 hr before removal from the well. The collagen bed, which has HUVEC's on the surface and transmigrated neutrophils within was embedded in paraffin, sectioned and followed by staining with hematoxylin-eosin for microscopic examination.

[3] = Table IV, 12 μM preincubation then 200-fold dilution, control 100

CCCCCCCCCCCCC/C=C/[C@@H](O)[C@H](CO)N(C)C [DMS, (4E)-N,N-dimethyl-D-erythro-sphingosine]
activity at 4.5 µM (neutrophils [1]; Table I, 4.5 μM, control 100): 26 ± 25% | activity at 12 µM (neutrophils [1]; [3]): 32 ± 19%

CCCCCCCCCCCCC/C=C/[C@@H](O)[C@@H](N)CO [SPN, sphingosine]
activity at 4.5 µM (neutrophils [1]): 14 ± 7% | activity at 12 µM (neutrophils [1]): 42 ± 24% | activity at 15 µM (neutrophils [2]; Homo sapiens, Neutrophil, 1.5 h, read-out: Number of Cells/View): 36 ± 12%

CCCCCCCCCCCCC/C=C/[C@@H](O)[C@H](CO)[N+](C)(C)C [TMS, N,N,N-trimethylsphingosine]
suppression of phagokinetic activity (neutrophils [1]; 1.5 μM): suppressed significantly | suppression of phagokinetic activity (neutrophils [1]; 4.5 μM): completely suppressed | neutrophil migration (phagokinetic) (neutrophils [1]; Example 9): inhibited neutrophil migration | activity at 4.5 µM (neutrophils [1]; Table I, 4.5 μM, control 100): 16 ± 18% | activity at 12 µM (neutrophils [1]; [3]): 92 ± 34% | reversal of inhibitory effect on phagokinetic activity (neutrophils [1]; medium replaced with TMS-free medium): reversed completely | inhibition of neutrophil migration (neutrophils [2]; 8 μM pre-treatment): inhibited strongly | number of cells migrating through the EC monolayer (neutrophils [2]; 15 μM): greatly reduces the number of cells migrating | inhibition of neutrophil migration (neutrophils [2]; 25 μM pre-treatment): completely inhibited | neutrophil migration (transmigration) (neutrophils [2]; Example 10): affected neutrophil migration | activity at 4 µM (neutrophils [2]; Homo sapiens, Neutrophil, 1.5 h, Table II, 4 μM, control 100, read-out: neutrophil transmigration (number of cells transmigrated)): 96 ± 18% | activity at 8 µM (neutrophils [2]; Homo sapiens, Neutrophil, 1.5 h, Table II, 8 μM, control 100, read-out: neutrophil transmigration (number of cells transmigrated)): 66 ± 28% | activity at 15 µM (neutrophils [2]; Homo sapiens, Neutrophil, 1.5 h, Table II, 15 μM, control 100, read-out: neutrophil transmigration (number of cells transmigrated)): 41 ± 8.7% | activity at 25 µM (neutrophils [2]; Homo sapiens, Neutrophil, 1.5 h, Table II, 25 μM, control 100, read-out: neutrophil transmigration (number of cells transmigrated)): 6.8 ± 4.1% | activity at 45 µM (neutrophils [2]; Homo sapiens, Neutrophil, 1.5 h, Table II, 45 μM, control 100, read-out: neutrophil transmigration (number of cells transmigrated)): 1.2 ± 1.2% | activity at 15 µM (neutrophils [2]; Homo sapiens, Neutrophil, 1.5 h, Table III, 15 μM, control 100, read-out: Number of Cells/View): 39 ± 17%

Calphostin C
Area Swept (neutrophils [1]; Table I, 0.5 μM, control 100, 120 min): 39 ± 11% | Number of Cells/View (neutrophils [2]; Table III, 5 μM, control 100, 90 min): 19 ± 8.9
